Source: ChEMBL document CHEMBL1146174, “Synthesis of antimicrobial 2,9,10-trisubstituted-6-oxo-7,12-dihydro-chromeno[3,4-b]quinoxalines” (2006)

Columns and labels:
Staphylococcus aureus [1] = test: Antibacterial activity against Staphylococcus aureus by measuring zone of inhibition at 100 ug/ml after 24 hrs; format: functional; conditions: read-out: IZ
Bacillus subtilis [2] = test: Antibacterial activity against Bacillus subtilis by measuring zone of inhibition at 100 ug/ml after 24 hrs; format: functional; conditions: read-out: IZ
Escherichia coli [3] = test: Antibacterial activity against Escherichia coli by measuring zone of inhibition at 100 ug/ml after 24 hrs; format: functional; conditions: read-out: IZ
Pseudomonas aeruginosa [4] = test: Antibacterial activity against Pseudomonas aeruginos by measuring zone of inhibition at 100 ug/ml after 24 hrs; format: functional; conditions: read-out: IZ
Aspergillus flavus [5] = test: Antifungal activity against Aspergillus flavus by measuring zone of inhibition at 100 ug/ml after 48 hrs; format: functional; conditions: read-out: IZ
Fusarium oxysporum [6] = test: Antifungal activity against Fusarium oxysporum by measuring zone of inhibition at 100 ug/ml after 48 hrs; format: functional; conditions: read-out: IZ
Staphylococcus aureus [7] = test: Antibacterial activity against Staphylococcus aureus by measuring zone of inhibition at 30 ug after 24 hrs; format: functional; conditions: read-out: IZ
Bacillus subtilis [8] = test: Antibacterial activity against Bacillus subtilis by measuring zone of inhibition at 30 ug after 24 hrs; format: functional; conditions: read-out: IZ
Escherichia coli [9] = test: Antibacterial activity against Escherichia coli by measuring zone of inhibition at 30 ug after 24 hrs; format: functional; conditions: read-out: IZ
Pseudomonas aeruginosa [10] = test: Antibacterial activity against Pseudomonase aeruginosa by measuring zone of inhibition at 30 ug after 24 hrs; format: functional; conditions: read-out: IZ
Aspergillus flavus [11] = test: Antifungal activity against Aspergillus flavus by measuring zone of inhibition at 30 ug after 48 hrs; format: functional, organism-based
Fusarium oxysporum [12] = test: Antifungal activity against Fusarium oxysporum by measuring zone of inhibition at 30 ug after 48 hrs; format: functional, organism-based

COc1ccc2oc(=O)c3c(c2c1)Nc1cc(C)c(C)cc1N3
zone of inhibition at 100 µg/mL (Staphylococcus aureus [1]): 11 mm
zone of inhibition at 100 µg/mL (Bacillus subtilis [2]): 9 mm
zone of inhibition at 100 µg/mL (Escherichia coli [3]): 9 mm
zone of inhibition at 100 µg/mL (Pseudomonas aeruginosa [4]): 10 mm
zone of inhibition at 100 µg/mL (Aspergillus flavus [5]): 6 mm
zone of inhibition at 100 µg/mL (Fusarium oxysporum [6]): 8 mm

Cc1ccc2oc(=O)c3c(c2c1)Nc1ccccc1N3
zone of inhibition at 100 µg/mL (Staphylococcus aureus [1]): 3 mm
zone of inhibition at 100 µg/mL (Bacillus subtilis [2]): 2 mm
zone of inhibition at 100 µg/mL (Escherichia coli [3]): 3 mm
zone of inhibition at 100 µg/mL (Pseudomonas aeruginosa [4]): 4 mm
zone of inhibition at 100 µg/mL (Aspergillus flavus [5]): 2 mm
zone of inhibition at 100 µg/mL (Fusarium oxysporum [6]): 2 mm

CN[C@@H]1[C@H](O[C@H]2[C@H](O[C@H]3[C@H](O)[C@@H](O)[C@H](N=C(N)N)[C@@H](O)[C@@H]3N=C(N)N)O[C@@H](C)[C@]2(O)C=O)O[C@@H](CO)[C@H](O)[C@H]1O [STREPTOMYCIN]
zone of inhibition at 30 µg/disc (Staphylococcus aureus [7]): 12 mm
zone of inhibition at 30 µg/disc (Bacillus subtilis [8]): 10 mm
zone of inhibition at 30 µg/disc (Escherichia coli [9]): 11 mm
zone of inhibition at 30 µg/disc (Pseudomonas aeruginosa [10]): 10 mm

O=c1oc2ccc(Cl)cc2c2c1Nc1ccccc1N2
zone of inhibition at 100 µg/mL (Staphylococcus aureus [1]): 6 mm
zone of inhibition at 100 µg/mL (Bacillus subtilis [2]): 3 mm
zone of inhibition at 100 µg/mL (Escherichia coli [3]): 4 mm
zone of inhibition at 100 µg/mL (Pseudomonas aeruginosa [4]): 5 mm
zone of inhibition at 100 µg/mL (Aspergillus flavus [5]): 3 mm
zone of inhibition at 100 µg/mL (Fusarium oxysporum [6]): 4 mm

NYSTATIN
inhibition zone (IZ) (Aspergillus flavus [11]): 9 mm
inhibition zone (IZ) (Fusarium oxysporum [12]): 8 mm

Cc1cc2c(cc1C)Nc1c(c(=O)oc3ccc([N+](=O)[O-])cc13)N2
zone of inhibition at 100 µg/mL (Staphylococcus aureus [1]): 5 mm
zone of inhibition at 100 µg/mL (Bacillus subtilis [2]): 4 mm
zone of inhibition at 100 µg/mL (Escherichia coli [3]): 4 mm
zone of inhibition at 100 µg/mL (Pseudomonas aeruginosa [4]): 5 mm
zone of inhibition at 100 µg/mL (Aspergillus flavus [5]): 4 mm
zone of inhibition at 100 µg/mL (Fusarium oxysporum [6]): 4 mm

Cc1cc2c(cc1C)Nc1c(c(=O)oc3ccc(F)cc13)N2
zone of inhibition at 100 µg/mL (Staphylococcus aureus [1]): 6 mm
zone of inhibition at 100 µg/mL (Bacillus subtilis [2]): 5 mm
zone of inhibition at 100 µg/mL (Escherichia coli [3]): 7 mm
zone of inhibition at 100 µg/mL (Pseudomonas aeruginosa [4]): 8 mm
zone of inhibition at 100 µg/mL (Aspergillus flavus [5]): 3 mm
zone of inhibition at 100 µg/mL (Fusarium oxysporum [6]): 4 mm

Cc1cc2c(cc1C)Nc1c(c(=O)oc3ccc(Br)cc13)N2
zone of inhibition at 100 µg/mL (Staphylococcus aureus [1]): 9 mm
zone of inhibition at 100 µg/mL (Bacillus subtilis [2]): 7 mm
zone of inhibition at 100 µg/mL (Escherichia coli [3]): 6 mm
zone of inhibition at 100 µg/mL (Pseudomonas aeruginosa [4]): 7 mm
zone of inhibition at 100 µg/mL (Aspergillus flavus [5]): 4 mm
zone of inhibition at 100 µg/mL (Fusarium oxysporum [6]): 5 mm

Cc1cc2c(cc1C)Nc1c(c(=O)oc3ccc(Cl)cc13)N2
zone of inhibition at 100 µg/mL (Staphylococcus aureus [1]): 7 mm
zone of inhibition at 100 µg/mL (Bacillus subtilis [2]): 5 mm
zone of inhibition at 100 µg/mL (Escherichia coli [3]): 8 mm
zone of inhibition at 100 µg/mL (Pseudomonas aeruginosa [4]): 9 mm
zone of inhibition at 100 µg/mL (Aspergillus flavus [5]): 3 mm
zone of inhibition at 100 µg/mL (Fusarium oxysporum [6]): 4 mm

Cc1ccc2oc(=O)c3c(c2c1)Nc1cc(C)c(C)cc1N3
zone of inhibition at 100 µg/mL (Staphylococcus aureus [1]): 5 mm
zone of inhibition at 100 µg/mL (Bacillus subtilis [2]): 3 mm
zone of inhibition at 100 µg/mL (Escherichia coli [3]): 4 mm
zone of inhibition at 100 µg/mL (Pseudomonas aeruginosa [4]): 5 mm
zone of inhibition at 100 µg/mL (Aspergillus flavus [5]): 2 mm
zone of inhibition at 100 µg/mL (Fusarium oxysporum [6]): 4 mm

COc1ccc2oc(=O)c3c(c2c1)Nc1ccccc1N3
zone of inhibition at 100 µg/mL (Staphylococcus aureus [1]): 8 mm
zone of inhibition at 100 µg/mL (Bacillus subtilis [2]): 5 mm
zone of inhibition at 100 µg/mL (Escherichia coli [3]): 6 mm
zone of inhibition at 100 µg/mL (Pseudomonas aeruginosa [4]): 7 mm
zone of inhibition at 100 µg/mL (Aspergillus flavus [5]): 5 mm
zone of inhibition at 100 µg/mL (Fusarium oxysporum [6]): 6 mm

O=c1oc2ccc([N+](=O)[O-])cc2c2c1Nc1ccccc1N2
zone of inhibition at 100 µg/mL (Staphylococcus aureus [1]): 5 mm
zone of inhibition at 100 µg/mL (Bacillus subtilis [2]): 4 mm
zone of inhibition at 100 µg/mL (Escherichia coli [3]): 4 mm
zone of inhibition at 100 µg/mL (Pseudomonas aeruginosa [4]): 4 mm
zone of inhibition at 100 µg/mL (Aspergillus flavus [5]): 4 mm
zone of inhibition at 100 µg/mL (Fusarium oxysporum [6]): 3 mm

O=c1oc2ccccc2c2c1Nc1ccccc1N2
zone of inhibition at 100 µg/mL (Staphylococcus aureus [1]): 2 mm
zone of inhibition at 100 µg/mL (Bacillus subtilis [2]): 1 mm
zone of inhibition at 100 µg/mL (Escherichia coli [3]): 2 mm
zone of inhibition at 100 µg/mL (Pseudomonas aeruginosa [4]): 3 mm
zone of inhibition at 100 µg/mL (Aspergillus flavus [5]): 2 mm
zone of inhibition at 100 µg/mL (Fusarium oxysporum [6]): 3 mm

O=c1oc2ccc(Br)cc2c2c1Nc1ccccc1N2
zone of inhibition at 100 µg/mL (Staphylococcus aureus [1]): 8 mm
zone of inhibition at 100 µg/mL (Bacillus subtilis [2]): 4 mm
zone of inhibition at 100 µg/mL (Escherichia coli [3]): 5 mm
zone of inhibition at 100 µg/mL (Pseudomonas aeruginosa [4]): 6 mm
zone of inhibition at 100 µg/mL (Aspergillus flavus [5]): 4 mm
zone of inhibition at 100 µg/mL (Fusarium oxysporum [6]): 5 mm

Cc1cc2c(cc1C)Nc1c(c(=O)oc3ccccc13)N2
zone of inhibition at 100 µg/mL (Staphylococcus aureus [1]): 4 mm
zone of inhibition at 100 µg/mL (Bacillus subtilis [2]): 2 mm
zone of inhibition at 100 µg/mL (Escherichia coli [3]): 3 mm
zone of inhibition at 100 µg/mL (Pseudomonas aeruginosa [4]): 4 mm
zone of inhibition at 100 µg/mL (Aspergillus flavus [5]): 2 mm
zone of inhibition at 100 µg/mL (Fusarium oxysporum [6]): 3 mm

O=c1oc2ccc(F)cc2c2c1Nc1ccccc1N2
zone of inhibition at 100 µg/mL (Staphylococcus aureus [1]): 5 mm
zone of inhibition at 100 µg/mL (Bacillus subtilis [2]): 3 mm
zone of inhibition at 100 µg/mL (Escherichia coli [3]): 3 mm
zone of inhibition at 100 µg/mL (Pseudomonas aeruginosa [4]): 4 mm
zone of inhibition at 100 µg/mL (Aspergillus flavus [5]): 2 mm
zone of inhibition at 100 µg/mL (Fusarium oxysporum [6]): 3 mm
